Residue numbers refer to the chain shown, from its start. Values belong to the molecule of their own block, whether it stands above or below them. Residues, ends and D or L forms follow the SMILES beside them. No end group written: not given here.
Legend:
human ASIC1a L280C [1] = molecular target: T1, human ASIC1a L280C (Homo sapiens, UniProt P78348, L280C); assay: Peptide-MTSET competition (MTSET modification in presence of peptide, residual current read-out); assay type: cell-based
T1 construct: expressed in transfected cells; host or cells: Xenopus laevis oocytes (nuclear injection of pMT3 expression plasmid)
T1 sequence (P78348 1-528 L280C): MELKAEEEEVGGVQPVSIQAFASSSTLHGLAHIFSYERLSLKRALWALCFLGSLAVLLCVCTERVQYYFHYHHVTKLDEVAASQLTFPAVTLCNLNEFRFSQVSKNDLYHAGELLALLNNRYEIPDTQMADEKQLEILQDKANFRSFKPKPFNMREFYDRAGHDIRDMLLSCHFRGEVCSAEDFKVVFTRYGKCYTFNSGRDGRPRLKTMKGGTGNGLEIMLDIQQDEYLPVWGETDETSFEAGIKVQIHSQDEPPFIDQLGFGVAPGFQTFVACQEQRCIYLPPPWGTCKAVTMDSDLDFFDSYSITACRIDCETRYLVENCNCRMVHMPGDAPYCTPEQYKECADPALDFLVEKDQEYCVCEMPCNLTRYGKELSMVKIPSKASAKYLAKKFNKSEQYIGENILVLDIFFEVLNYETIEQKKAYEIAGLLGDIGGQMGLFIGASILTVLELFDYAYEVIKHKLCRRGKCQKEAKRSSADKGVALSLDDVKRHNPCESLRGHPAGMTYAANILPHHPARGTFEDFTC
Method: The Stratagene QuikChange® site-directed mutagenesis kit (Cedar Creek, TX) was used to introduce point mutations into the human ASIC1a cDNA (GENBANK accession number NM_001095) within the pMT3 expression vector. Mutations were confirmed by DNA sequencing at the Plant-Microbe Genomics Facility at The Ohio State University and high quality plasmid DNA was prepared for injection using Qiagen (Valencia, CA) Midi prep kits. Female Xenopus laevis were purchased from Xenopus I (Dexter, MI) and Xenopus oocytes were isolated using standard procedures. This work was implemented in accordance with the Guide for the Care and Use of Laboratory Animals of the National Institutes of Health and approved by the Institutional Animal Care and Use Committee of The Ohio State University (protocol # 2009A0161-R1). The oocyte removal surgery was performed under tricaine methanesulfonate (MS222) anesthesia and all efforts were made to minimize suffering. […]
Vehicle or 100 µM peptide was applied for 1 minute at pH 7.4. […] Before residual current was measured, oocytes were washed with at least 50 mL of pH 7.4 over 10 minutes in order to remove peptides. […]

human ASIC1a L280C [2] = molecular target: T1, human ASIC1a L280C; assay: FRRFa / FRRF (no amide) modulation of acid-evoked currents, two-electrode voltage clamp in Xenopus oocytes; assay type: cell-based
Method: (§1) The Stratagene QuikChange® site-directed mutagenesis kit (Cedar Creek, TX) was used to introduce point mutations into the human ASIC1a cDNA (GENBANK accession number NM_001095) within the pMT3 expression vector. Mutations were confirmed by DNA sequencing at the Plant-Microbe Genomics Facility at The Ohio State University and high quality plasmid DNA was prepared for injection using Qiagen (Valencia, CA) Midi prep kits. Female Xenopus laevis were purchased from Xenopus I (Dexter, MI) and Xenopus oocytes were isolated using standard procedures. This work was implemented in accordance with the Guide for the Care and Use of Laboratory Animals of the National Institutes of Health and approved by the Institutional Animal Care and Use Committee of The Ohio State University (protocol # 2009A0161-R1). The oocyte removal surgery was performed under tricaine methanesulfonate (MS222) anesthesia and all efforts were made to minimize suffering. Ovarian lobes were removed and digested for 1.5-2 hours at room temperature with 1.2 mg/ml collagenase in Modified Barth’s solution lacking calcium (24 mM NaHCO3, 88 mM NaCl, 15 mM HEPES, 1 mM KCl, 0.8 mM MgSO4, 125 units/liter penicillin/streptomycin) to separate individual oocytes and remove follicular membranes. Healthy stage IV and V oocytes were selected and maintained in Modified Barth’s solution containing calcium (0.4 mM CaCl2 and 0. 3 mM Ca(NO3)2). The nuclei of isolated oocytes were injected with ~5 ng of a 100 ng/µl stock of wildtype or mutant ASIC1a expression plasmids using a PV820 pneumatic picopump (World Precision Instruments, Sarasota, FL). Oocytes were incubated at 18 °C for 18-96 hours before experiments were performed. […]
(§2) In order to obtain the pH dependence of activation, basal pH was maintained at pH 7.4. […] Peak current amplitude was measured for each test pH and normalized to the average peak amplitude of flanking pH 5.0 currents to minimize the impact of potential tachyphylaxis. […] As before, maximal currents were measured before and after test conditioning pH to minimize the effect of possible tachyphylaxis of proton-gated current. […]

human ASIC1a L280C [3] = molecular target: T1, human ASIC1a L280C; assay: MTSET modification of the cysteine mutant (residual current read-out), closed vs desensitized state; assay type: cell-based
Method: (§3) The Stratagene QuikChange® site-directed mutagenesis kit (Cedar Creek, TX) was used to introduce point mutations into the human ASIC1a cDNA (GENBANK accession number NM_001095) within the pMT3 expression vector. Mutations were confirmed by DNA sequencing at the Plant-Microbe Genomics Facility at The Ohio State University and high quality plasmid DNA was prepared for injection using Qiagen (Valencia, CA) Midi prep kits. Female Xenopus laevis were purchased from Xenopus I (Dexter, MI) and Xenopus oocytes were isolated using standard procedures. This work was implemented in accordance with the Guide for the Care and Use of Laboratory Animals of the National Institutes of Health and approved by the Institutional Animal Care and Use Committee of The Ohio State University (protocol # 2009A0161-R1). The oocyte removal surgery was performed under tricaine methanesulfonate (MS222) anesthesia and all efforts were made to minimize suffering. Ovarian lobes were removed and digested for 1.5-2 hours at room temperature with 1.2 mg/ml collagenase in Modified Barth’s solution lacking calcium (24 mM NaHCO3, 88 mM NaCl, 15 mM HEPES, 1 mM KCl, 0.8 mM MgSO4, 125 units/liter penicillin/streptomycin) to separate individual oocytes and remove follicular membranes. Healthy stage IV and V oocytes were selected and maintained in Modified Barth’s solution containing calcium (0.4 mM CaCl2 and 0. 3 mM Ca(NO3)2). The nuclei of isolated oocytes were injected with ~5 ng of a 100 ng/µl stock of wildtype or mutant ASIC1a expression plasmids using a PV820 pneumatic picopump (World Precision Instruments, Sarasota, FL). Oocytes were incubated at 18 °C for 18-96 hours before experiments were performed.
The two-electrode voltage clamp technique was used to measure whole cell currents from Xenopus oocytes heterologously expressing ASIC1a channels as described. Electrodes were pulled using a Sutter P-97 micropipette puller (Sutter Instrument Co., Novato, CT) and filled with 3 M KCl (pipette resistance of 0.5–2 MΩ). Oocyte recordings were done in a modified RC-Z3 250 µl oocyte recording chamber (Warner Instruments, Hamden, CT). Data were acquired using an Oocyte Clamp OC-725 Amplifier (Warner Instruments, Hamden, CT) and a Powerlab 4SP digitizer with CHART5 software (ADI Instruments, Colorado Springs, CO). Except where noted, the extracellular solution contained (in mM): 116 NaCl, 2 KCl, 5 HEPES, 5 MES, 2 CaCl2, 1 MgCl2, with pH adjusted using 1N NaOH. The solution exchange rate in the recording chamber was ~1 ml/s. The holding potential was -60 mV unless otherwise noted. [2-(Trimethylammonium)ethyl] Methanethiosulfonate Bromide (MTSET) was purchased from Toronto Research Chemicals, Inc. (Ontario, Canada). FRRFamide peptide (FRRFa) and FRRF (no amide) were synthesized from EZBiolab, Inc. (Westfield, IN).
Oocytes were maintained at a basal pH of 7.4 and maximal currents were established with application of pH 5.0. Currents were allowed to decay for at least 60 s. The control residual current was determined by normalizing the current remaining at 60 s to the peak amplitude (Iresidual/Itransient). After recovery, 300 µM MTSET was applied at pH 7.4 for the indicated duration and excess MTSET was washed away with at least 10 mL of pH 7.4 solution. The pH-dependence of activation and steady-state desensitization were measured as described above. During experiments using MTSET, the effect on residual current decreased slightly over time. […]

wildtype ASIC1a = assay: MTSET exposure, two-electrode voltage clamp in Xenopus oocytes; assay type: cell-based, human
Method: as §3
The two-electrode voltage clamp technique was used to measure whole cell currents from Xenopus oocytes heterologously expressing ASIC1a channels as described. Electrodes were pulled using a Sutter P-97 micropipette puller (Sutter Instrument Co., Novato, CT) and filled with 3 M KCl (pipette resistance of 0.5–2 MΩ). Oocyte recordings were done in a modified RC-Z3 250 µl oocyte recording chamber (Warner Instruments, Hamden, CT). Data were acquired using an Oocyte Clamp OC-725 Amplifier (Warner Instruments, Hamden, CT) and a Powerlab 4SP digitizer with CHART5 software (ADI Instruments, Colorado Springs, CO). […]
as §2

wildtype human ASIC1a = molecular target: T2, wildtype human ASIC1a (Homo sapiens, UniProt P78348); assay: FRRFa modulation of acid-evoked currents, two-electrode voltage clamp in Xenopus oocytes; assay type: cell-based
T2 construct: expressed in transfected cells; host or cells: Xenopus laevis oocytes (nuclear injection of pMT3 expression plasmid)
T2 sequence (P78348 1-528): T1 sequence (P78348 1-528 L280C) with C280L
Method: as §1, §2

[4] = molecular target: T3, human ASIC1a L280C (human) (UniProt P78348)
T3 sequence: T1 sequence (P78348 1-528 L280C)

[5] = molecular target: T4, human acid-sensing ion channel 1a (hASIC1a), wild type (human) (UniProt P78348)
T4 sequence: T1 sequence (P78348 1-528 L280C) with C280L

Molecule: FRRF [FRRF (no amide), peptide FRRF lacking the c-terminal amide, used as a control]
effect of peptide on MTSET modification (human ASIC1a L280C [1]; 100 µM peptide + 300 µM MTSET at pH 7.4): did not interfere with MTSET modification
residual current (Iresidual/Itransient) (human ASIC1a L280C [2]; 100 µM peptide 1 min at pH 7.4 before pH 5.0, current at 60 s normalized to peak, p = 2x10^-6 vs FRRFa): 5.6 ± 0.8%

Molecule: C[N+](C)(C)CCSS(C)(=O)=O.[Br-] [MTSET, [2-(Trimethylammonium)ethyl] Methanethiosulfonate Bromide]
run down of MTSET effect: decrease in residual current with repeated pH 5.0 applications (human ASIC1a L280C [3]; L280C after MTSET modification, n = 8, p = 0.003 paired t-test): 17 ± 5%
run down of MTSET effect: decrease in inactivation rate with repeated pH 5.0 applications (human ASIC1a L280C [3]; L280C after MTSET modification, n = 8, p = 0.01 paired t-test): 31 ± 9%
run down of MTSET effect: decrease in peak amplitude with repeated pH 5.0 applications (human ASIC1a L280C [3]; L280C after MTSET modification, n = 8, p = 0.02 paired t-test): 5%
time until MTSET modification observed (increase in residual current) (human ASIC1a L280C [3]; L280C closed state, pH 6.8, 5.0 mM Ca2+ conditioning, 300 µM MTSET): ≤ 2 min
MTSET modification in the desensitized state (human ASIC1a L280C [3]; L280C desensitized state, pH 6.8, nominal Ca2+-free conditioning, 300 µM MTSET up to 6 minutes): did not appreciably modify L280C
time until MTSET modulation plateaued in presence of vehicle (human ASIC1a L280C [1]; 300 µM MTSET at pH 7.4 with vehicle): 5 min
% residual current after MTS (wildtype ASIC1a; 300 µM MTSET at pH 7.4, before MTS 0.16 ± 0.05%, n = 3, p = 0.3): 0.31 ± 0.04%
τinact after MTS (wildtype ASIC1a; 300 µM MTSET at pH 7.4, before MTS 1.8 ± 0.2 s, n = 3, p = 0.9): 1.8 ± 0.2 s
steady-state desensitization, conditioning pH6.7/7.4 after MTS (wildtype ASIC1a; 300 µM MTSET, before MTS 1.8 ± 0.7%, n = 3, p = 0.2): 1.5 ± 0.6%
activation pH6.5/5.0 after MTS (wildtype ASIC1a; 300 µM MTSET, before MTS 66 ± 10%, n = 3, p = 0.7): 62 ± 3%

Molecule: N=C(N)NCCC[C@H](NC(=O)[C@H](CCCNC(=N)N)NC(=O)[C@@H](N)Cc1ccccc1)C(=O)N[C@@H](Cc1ccccc1)C(N)=O [FRRFa, FRRFamide] (H-FRRF-NH2)
increase in τinact with FRRFamide (wildtype human ASIC1a; 100 µM FRRFa vs control, mean ± SEM, n = 14, SEM): 45 ± 6%
difference in response between 100µM and 300µM FRRFa (wildtype human ASIC1a; residual current, n = 5, p = 0.69 paired t-test (not significant)): 10.42% ± 11.25
EC50 (wildtype human ASIC1a; responses normalized to 100 µM FRRFa, mean ± SEM, n = 6-8, SEM, read-out: EC50 of FRRFa modulation (effect on residual current)): 20 ± 4 µM
increase in τinact with FRRFamide (human ASIC1a L280C [2]; 100 µM FRRFa vs control, mean ± SEM, n = 17, p = 6x10^-5 vs wildtype, SEM): 131 ± 16%
EC50 (human ASIC1a L280C [2]; responses normalized to 100 µM FRRFa, mean ± SEM, n = 6-8, p = 0.34 vs wildtype, SEM, read-out: EC50 of FRRFa modulation (effect on residual current)): 14 ± 4 µM

EC50 of FRRFa modulation of the residual current of pH 5.0-evoked currents (two-electrode voltage clamp, Xenopus oocytes; responses normalised to 100 µM FRRFa) [4]: 14 µM
EC50 of FRRFa modulation of the residual current of pH 5.0-evoked currents (two-electrode voltage clamp, Xenopus oocytes; responses normalised to 100 µM FRRFa) [5]: 20 µM
Molecule: FRRF-NH2 [FRRFamide peptide]
